Laboratory results taken from US20040180855A1, “Methods of treating thrombosis with reduced risk of increased bleeding times” (priority 2003, published 2004).
Like-named read-outs stand apart in the source and are kept apart here.

Assays:
Human FXIa = molecular target: T1, Human FXIa (Homo sapiens, UniProt P03951); assay: FXIa enzymatic activity (chromogenic S-2366; fluorescent assay for high potency); type: biochemical
T1 construct: purchased Enzyme Research Labs or Haematologic Technologies Inc
T1 sequence (P03951 388-625 limits assumed): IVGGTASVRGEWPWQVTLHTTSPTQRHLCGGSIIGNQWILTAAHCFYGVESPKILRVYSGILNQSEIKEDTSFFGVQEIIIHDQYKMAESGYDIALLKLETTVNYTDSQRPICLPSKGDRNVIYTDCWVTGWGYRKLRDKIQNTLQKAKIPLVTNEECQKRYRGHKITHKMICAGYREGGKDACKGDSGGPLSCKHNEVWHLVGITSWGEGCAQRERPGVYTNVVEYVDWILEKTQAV
T1 sequence (P03951 19-387 partner limits assumed): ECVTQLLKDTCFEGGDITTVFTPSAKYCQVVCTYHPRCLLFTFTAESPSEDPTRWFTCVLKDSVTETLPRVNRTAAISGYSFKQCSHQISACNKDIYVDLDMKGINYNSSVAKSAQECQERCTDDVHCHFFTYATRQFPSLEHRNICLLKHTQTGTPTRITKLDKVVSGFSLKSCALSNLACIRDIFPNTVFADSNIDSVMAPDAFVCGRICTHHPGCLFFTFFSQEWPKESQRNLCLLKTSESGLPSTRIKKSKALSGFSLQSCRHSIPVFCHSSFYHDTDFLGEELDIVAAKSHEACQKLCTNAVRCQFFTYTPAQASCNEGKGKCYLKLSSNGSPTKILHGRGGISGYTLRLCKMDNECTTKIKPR
Procedure: Human FXIa activity (Enzyme Research Labs or Haematologic Technologies Inc.) was measured at room temperature in 96 well microtiter plates. The enzyme was incubated with drug for 3 minutes at an enzyme concentration of 0.5 nM in 145 mM NaCl, 5 mM KCl, 1 mg/mL PEG 8000,30 mM HEPES (pH 7.4). After the three minute incubation, 100 μM substrate, S-2366, (L-Pyroglut-Pro-Arg-pNA, Diapharma Group, Inc.) was added and the enzyme velocity was measured using a Molecular Devices Spectro Max Plus (405 nm wavelength) in kinetic mode and analyzed using SOFTmax Pro (ver 3.0) software. For routine compound evaluation, the fraction of control activity (FCA) was plotted as a function of the inhibitor concentration (I), and the curve was fit to the equation FCA /(1+[I]/IC50) to determine the IC50.
A fluorescent assay was performed under similar conditions to evaluate FXIa activity of compounds with high potency (IC50<10 nM). A different substrate (D-Ile-Pro-Arg-AFC.2TFA) and a different concentration of enzyme (0.043 nM) was used. The enzyme velocity was measured using a Molecular Devices fMax fluorescent plate reader (400 nm excitation, 505 nm emission).

[1] = test system: thrombosis and bleeding time in anesthetized rats; assay: Differential effect on thrombosis inhibition and bleeding time prolongation (FIG. 7); type: in vivo, rat; details: versus thrombin and FXa inhibitors (16A, 16B)
Procedure: FIG. 7 reports an analysis of the differential effect on thrombosis inhibition and bleeding time prolongation in anesthetized rats for the Factor XIa inhibitor, as compared with the “direct acting” thrombin and FXa active site inhibitors, namely, compounds 16A and 16B (thrombin and FXa active site inhibitors). The thrombin inhibitor (open symbols), FXa inhibitor (dotted symbols) and FXIa inhibitor (line symbols) were tested for effects on arterial thrombosis (squares), venous thrombosis (triangles) and bleeding time (circles) in rat models. Compounds were administered as loading plus sustaining infusion and the total dose is given on the x-axis.

human plasma [2] = assay: APTT clotting time, human plasma; type: biochemical
Excerpt: (§1) The term “APTT” as used herein means “activated partial thromboplastin times” which is intended to refer to the time elapsed between the formation of an assay solution and the detection of clot formation in the assay solution with use of an APTT assay, i.e., an assay employing an intrinsic pathway activator, such as micronized silica, and a phospholipid component of a thromboplastin reagent (without tissue factor protein) for evaluating coagulation associated with the intrinsic pathway.
(§2) PT and APTT clotting times were determined as described in Balasubramanian et al., J. Med. Chem., Vol. 36 (1993), at pp. 300-03, incorporated herein by reference. The whole blood aggregation response of rat platelets to collagen was determined using the impedance procedure for a Model 560-CA Chrono-Log aggregometer (Havertown, Pa.).

[3] = test system: renal cortex bleeding time; assay: Renal cortex bleeding time (RCBT) model; type: in vivo; details: rat, i.v. 12+12 and 24+24 mg/kg+mg/kg/hr, pre- vs post-treatment, FIG. 5
Procedure: Experimental Bleeding Time Two models of bleeding time were performed, namely, a renal cortex bleeding model (using template incision of the renal cortex), and a mesenteric artery bleeding model (using severance of small mesenteric arteries).
In the renal cortex bleeding time (RCBT) model, both kidneys were exposed by a midline abdominal incision, and the renal capsules were removed to expose the bare renal cortex which was superfused with Ringer's solution maintained at 37° C. […] While observing under 3×-binocular magnifier, the time in sec from injury until bleeding stopped was recorded. Three bleeding times were determined on the right kidney before, and on the left kidney 15 min after, the start of test article infusion. […]
Statistical Analysis In the venous and arterial thrombosis procedures, treatment effects on thrombus weight, baseline blood flow, and average blood flow during thrombosis were determined by analysis of variance with Dunnett's test for comparison to the vehicle group. […] Treatment effects on bleeding times were determined by analysis of variance with Dunnett's test for comparison to the vehicle group. Both post-treatment and pre-treatment bleeding times and the relative bleeding time increases in sec were analyzed. […]

FXIIa = molecular target: T2, FXIIa (Homo sapiens, UniProt P00748); assay: Selectivity assay FXIIa; type: biochemical; details: Table 3
T2 construct: purchased American Diagnostica
T2 sequence (P00748 373-615 limits assumed, other chains not shown): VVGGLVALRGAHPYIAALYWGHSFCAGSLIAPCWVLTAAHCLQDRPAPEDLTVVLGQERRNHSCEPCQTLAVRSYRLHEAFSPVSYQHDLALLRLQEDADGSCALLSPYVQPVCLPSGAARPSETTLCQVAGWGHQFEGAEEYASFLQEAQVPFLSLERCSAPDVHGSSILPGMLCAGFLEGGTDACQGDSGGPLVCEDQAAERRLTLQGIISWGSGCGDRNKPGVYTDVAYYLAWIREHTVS

rat plasma [4] = assay: APTT clotting time, rat plasma; type: biochemical
Excerpt: as §1, §2

[5] = test system: panel of 40 receptors and enzymes; assay: Panel of 40 receptors and enzymes (MDS Panlabs Pharmacology Services)
rat plasma [6] = assay: PT clotting time, rat plasma; type: biochemical; details: up to 100 μM
Procedure: (§3) The term “PT” time as used herein refers to prothrombin times which is intended to refer to the time elapsed between formation of an assay solution and detection of clot formation in the assay solution with use of a PT assay, i.e., an assay employing thromboplastin reagents that are used for evaluating blood coagulation associated with the extrinsic pathway.
as §2

human plasma [7] = assay: PT clotting time, human plasma; type: biochemical; details: highest concentration tested 100 μM
Procedure: as §3, §2

FIXa = molecular target: T3, FIXa (Homo sapiens, UniProt P00740); assay: Selectivity assay FIXa; type: biochemical; details: Table 3
T3 construct: purchased American Diagnostica
T3 sequence (P00740 227-461 limits assumed): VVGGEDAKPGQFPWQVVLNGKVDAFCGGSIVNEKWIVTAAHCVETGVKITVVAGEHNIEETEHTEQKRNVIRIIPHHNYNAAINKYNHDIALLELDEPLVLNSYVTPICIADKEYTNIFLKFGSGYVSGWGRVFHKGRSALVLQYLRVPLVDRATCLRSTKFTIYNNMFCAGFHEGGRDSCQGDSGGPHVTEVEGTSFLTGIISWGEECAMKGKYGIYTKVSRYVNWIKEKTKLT
T3 sequence (P00740 47-191 partner limits assumed): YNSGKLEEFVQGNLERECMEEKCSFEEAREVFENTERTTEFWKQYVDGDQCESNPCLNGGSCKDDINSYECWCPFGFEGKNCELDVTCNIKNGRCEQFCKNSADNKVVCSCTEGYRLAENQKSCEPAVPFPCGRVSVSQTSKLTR

IC50 (Human FXIa; Table 1, Factor XIa, approximate, read-out: IC50(≅)): ~0.0028 µM
IC50 (Human FXIa; Table 3, read-out: IC50 (μM) FXIa): 0.0028 µM
times more active than the FXa inhibitor for inhibiting Factor XIa (Human FXIa; from Table 3 IC50 values): more than 10,000 times
times more active than the thrombin inhibitor (compound 16A) for inhibiting Factor XIa (Human FXIa; from Table 3 IC50 values): greater than 2,000 times
separation between bleeding time prolongation and efficacy in venous and arterial thrombosis [1]: substantially greater separation
effect on renal cortex bleeding times [3]: no effect
IC50 (FXIIa): > 33 µM
inhibition or enhancement of receptor and enzyme activities [5]: No significant inhibition or enhancement
IC50 (FIXa): 17.4 µM
SMILES: CC(C)(C)NC(=O)N1CCN(C(=O)N2C(=O)[C@H](CCCNC(=N)N)[C@H]2C(=O)O)CC1 [Example 4]
Clotting time APTT (human), concentration that doubles clotting time (human plasma [2]): 0.6 µM
Clotting time APTT (rat), concentration that doubles clotting time (rat plasma [4]): 2.1 µM
Clotting time PT (rat), concentration that doubles clotting time (rat plasma [6]): >100 µM
Clotting time PT (human), concentration that doubles clotting time (human plasma [7]): >100 µM
